Experimental findings from ChEMBL document CHEMBL1201862, “PubChem BioAssay data set” (2004) are described below.

As usually defined, the AC50 is the concentration at which the activity in the assay is half-maximal. As a reminder, the IC50 is the concentration that gives 50% inhibition. Broadly, the CC50 is the concentration at which the toxic effect on the cells reaches its halfway point.

Active and inactive are the calls of the source.

The target in series [1] is Cytochrome P450 3A4 (Homo sapiens, UniProt P08684).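 Also: CYP3A4 tested as one member of a cytochrome P450 panel screen.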
Cytochrome P450 3A4, sequence (P08684 whole entry): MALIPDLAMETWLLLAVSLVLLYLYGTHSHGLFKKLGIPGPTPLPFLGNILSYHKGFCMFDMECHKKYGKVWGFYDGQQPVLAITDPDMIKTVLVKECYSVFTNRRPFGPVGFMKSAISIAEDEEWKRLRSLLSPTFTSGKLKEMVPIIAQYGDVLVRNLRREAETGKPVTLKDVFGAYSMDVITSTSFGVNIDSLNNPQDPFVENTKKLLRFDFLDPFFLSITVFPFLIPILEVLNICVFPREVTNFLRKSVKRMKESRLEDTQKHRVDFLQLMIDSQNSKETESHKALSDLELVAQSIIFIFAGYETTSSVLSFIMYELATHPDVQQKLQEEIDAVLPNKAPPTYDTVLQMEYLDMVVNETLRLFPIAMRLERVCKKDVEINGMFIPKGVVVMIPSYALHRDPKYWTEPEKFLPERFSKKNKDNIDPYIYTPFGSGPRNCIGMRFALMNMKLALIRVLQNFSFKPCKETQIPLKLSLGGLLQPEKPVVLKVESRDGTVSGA
For series [2], the target named is Cytochrome P450 2C9 (Homo sapiens, UniProt P11712).
Cytochrome P450 2C9, sequence (P11712 whole entry): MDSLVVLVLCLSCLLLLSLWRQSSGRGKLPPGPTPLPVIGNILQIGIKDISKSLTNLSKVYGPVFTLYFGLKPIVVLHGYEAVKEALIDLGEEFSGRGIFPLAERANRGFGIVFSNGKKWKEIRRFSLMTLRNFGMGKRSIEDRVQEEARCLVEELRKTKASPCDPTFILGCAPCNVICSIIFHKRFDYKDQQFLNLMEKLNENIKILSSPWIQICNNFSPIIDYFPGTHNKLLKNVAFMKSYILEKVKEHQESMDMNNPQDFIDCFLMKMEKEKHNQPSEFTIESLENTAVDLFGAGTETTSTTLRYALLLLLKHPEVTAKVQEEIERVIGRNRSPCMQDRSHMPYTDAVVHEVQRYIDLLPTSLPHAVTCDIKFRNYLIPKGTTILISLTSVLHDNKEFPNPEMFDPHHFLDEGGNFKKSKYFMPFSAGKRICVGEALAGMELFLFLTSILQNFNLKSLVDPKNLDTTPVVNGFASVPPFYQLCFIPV
For series [3], the target named is T1, Hexokinase-1 (Homo sapiens, UniProt P19367).
T1 sequence (P19367 whole entry): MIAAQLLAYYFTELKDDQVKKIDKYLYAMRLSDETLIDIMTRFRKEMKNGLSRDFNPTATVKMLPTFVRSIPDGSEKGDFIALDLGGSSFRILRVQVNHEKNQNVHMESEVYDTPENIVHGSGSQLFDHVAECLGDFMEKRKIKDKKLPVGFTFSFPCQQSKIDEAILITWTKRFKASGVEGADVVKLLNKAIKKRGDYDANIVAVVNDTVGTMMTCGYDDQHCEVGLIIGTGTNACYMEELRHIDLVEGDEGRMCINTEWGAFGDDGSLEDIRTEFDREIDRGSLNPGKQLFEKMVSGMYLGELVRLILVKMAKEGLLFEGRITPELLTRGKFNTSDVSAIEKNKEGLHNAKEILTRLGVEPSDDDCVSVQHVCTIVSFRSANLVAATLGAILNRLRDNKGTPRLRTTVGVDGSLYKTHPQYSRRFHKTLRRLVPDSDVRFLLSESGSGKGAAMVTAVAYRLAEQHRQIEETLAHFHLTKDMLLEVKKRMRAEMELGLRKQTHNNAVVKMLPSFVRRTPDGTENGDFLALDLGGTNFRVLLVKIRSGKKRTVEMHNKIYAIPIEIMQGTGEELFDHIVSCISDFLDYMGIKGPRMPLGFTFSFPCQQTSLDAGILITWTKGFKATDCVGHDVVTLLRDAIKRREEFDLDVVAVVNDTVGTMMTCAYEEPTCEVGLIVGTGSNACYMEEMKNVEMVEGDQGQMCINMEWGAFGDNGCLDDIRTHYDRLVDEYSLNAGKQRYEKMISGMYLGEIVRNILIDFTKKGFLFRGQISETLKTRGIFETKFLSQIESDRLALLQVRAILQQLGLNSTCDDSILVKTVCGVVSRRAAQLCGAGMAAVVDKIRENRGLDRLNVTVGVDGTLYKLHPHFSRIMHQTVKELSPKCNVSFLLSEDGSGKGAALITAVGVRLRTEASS
The experiment in a line: hexokinase 1 activators, dose response, selectivity assay for HKDC1 activator project, biochemical (AID 504762). The format is functional.

The target of series [4] is T2, Hexokinase HKDC1 (Homo sapiens, UniProt Q2TB90).
T2 sequence (Q2TB90 whole entry): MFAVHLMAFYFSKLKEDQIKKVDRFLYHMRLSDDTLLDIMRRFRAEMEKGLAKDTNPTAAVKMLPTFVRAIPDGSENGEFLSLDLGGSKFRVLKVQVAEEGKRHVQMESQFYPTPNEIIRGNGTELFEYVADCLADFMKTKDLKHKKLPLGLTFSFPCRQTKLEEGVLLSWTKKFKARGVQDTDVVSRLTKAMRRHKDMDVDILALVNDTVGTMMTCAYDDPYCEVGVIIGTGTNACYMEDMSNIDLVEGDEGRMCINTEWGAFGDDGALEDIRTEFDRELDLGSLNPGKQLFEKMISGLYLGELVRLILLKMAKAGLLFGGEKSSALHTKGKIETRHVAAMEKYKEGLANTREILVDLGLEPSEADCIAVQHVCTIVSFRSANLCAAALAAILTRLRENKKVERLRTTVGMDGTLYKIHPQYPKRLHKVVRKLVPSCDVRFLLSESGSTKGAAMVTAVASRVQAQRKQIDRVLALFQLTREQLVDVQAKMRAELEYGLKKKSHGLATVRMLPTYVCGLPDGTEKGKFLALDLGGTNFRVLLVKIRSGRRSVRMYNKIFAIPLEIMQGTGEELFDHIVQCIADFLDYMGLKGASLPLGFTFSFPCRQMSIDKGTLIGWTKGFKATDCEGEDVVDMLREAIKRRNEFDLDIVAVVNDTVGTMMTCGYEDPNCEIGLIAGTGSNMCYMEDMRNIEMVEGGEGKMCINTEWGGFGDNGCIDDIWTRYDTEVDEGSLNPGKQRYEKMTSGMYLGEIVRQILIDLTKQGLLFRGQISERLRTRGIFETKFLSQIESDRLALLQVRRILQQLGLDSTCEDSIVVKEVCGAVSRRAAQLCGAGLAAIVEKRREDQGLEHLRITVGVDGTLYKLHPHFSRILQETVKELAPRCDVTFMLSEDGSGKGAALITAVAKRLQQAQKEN
The experiment in a line: HKDC1 hexokinase activators, dose response, biochemical, W721R variant (AID 504730). The format is functional.

Series [5] has as its target Cytochrome P450 2D6 (Homo sapiens, UniProt P10635).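 Also: CYP2D6 member of a cytochrome P450 panel assay.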
Series [6] deals with T3, Endoribonuclease toxin MazF (Escherichia coli K-12, UniProt P0AE70).
T3 sequence (P0AE70 whole entry): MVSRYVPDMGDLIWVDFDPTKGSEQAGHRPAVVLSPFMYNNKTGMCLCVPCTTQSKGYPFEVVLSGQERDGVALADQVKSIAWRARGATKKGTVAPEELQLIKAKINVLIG
The experiment in a line: MazF toxin RNase activators, dose response, biochemical, fluorescence, single-stranded RNA substrate, uHTS hits (AID 588481). Type of series: functional.

The target in series [7] is T3, Endoribonuclease toxin MazF. The experiment in a line: fluorescent RNA oligo signal without MazF, dose response, counter-screen for MazEF activator project, biochemical, fluorescence, single-stranded RNase substrate (AID 588502). The format is functional. For orientation: The purpose of a counterscreen is to sort out artefacts and off-target activity.
In series [8] the target is Troponin, cardiac muscle (Homo sapiens, UniProt P19429+P45379+P63316). The experiment in a line: Fluorescence-based biochemical high throughput dose response assay for activators of the calcium sensitivity of cardiac Regulated Thin Filaments (RTF). [Related pubchem assays (depositor defined):AID493008, AID493018, AID504382, AID504383]. Type of series: protein-complex assay.

Series [9] has as its target T4, Corticotropin-releasing factor receptor 2/Corticotropin-releasing factor-binding protein (Homo sapiens, UniProt P24387+Q13324).
T4 sequence (Q13324 whole entry): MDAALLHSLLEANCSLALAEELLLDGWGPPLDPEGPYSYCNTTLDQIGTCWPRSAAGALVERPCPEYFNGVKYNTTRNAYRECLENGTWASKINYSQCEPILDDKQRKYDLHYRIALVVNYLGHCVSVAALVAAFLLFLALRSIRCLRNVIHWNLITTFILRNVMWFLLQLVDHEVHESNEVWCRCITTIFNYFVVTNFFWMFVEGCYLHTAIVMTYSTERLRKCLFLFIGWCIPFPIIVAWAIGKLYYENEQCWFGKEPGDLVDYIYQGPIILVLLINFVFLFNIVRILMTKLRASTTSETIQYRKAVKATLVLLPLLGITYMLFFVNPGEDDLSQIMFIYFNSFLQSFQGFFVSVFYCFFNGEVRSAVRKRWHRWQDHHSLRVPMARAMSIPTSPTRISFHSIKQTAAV
T4 sequence (P24387 whole entry): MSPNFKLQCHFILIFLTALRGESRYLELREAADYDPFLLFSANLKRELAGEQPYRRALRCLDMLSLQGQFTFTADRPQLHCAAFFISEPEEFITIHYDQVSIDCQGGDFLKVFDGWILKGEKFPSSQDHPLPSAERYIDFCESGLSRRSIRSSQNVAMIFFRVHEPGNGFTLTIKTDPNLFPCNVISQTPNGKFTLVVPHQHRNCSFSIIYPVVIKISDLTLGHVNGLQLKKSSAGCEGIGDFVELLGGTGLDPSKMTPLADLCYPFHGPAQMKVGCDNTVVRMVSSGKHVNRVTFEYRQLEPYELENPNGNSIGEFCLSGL
The experiment in a line: activators of CRF receptor 2 with binding protein – uHTS hits, confirmation (AID 602473). The format is functional. The following applies: read-out: EC50_Mean.

In series [10] the target is T5, Phosphomannomutase 2 (Homo sapiens, UniProt O15305).
T5 sequence (O15305 whole entry): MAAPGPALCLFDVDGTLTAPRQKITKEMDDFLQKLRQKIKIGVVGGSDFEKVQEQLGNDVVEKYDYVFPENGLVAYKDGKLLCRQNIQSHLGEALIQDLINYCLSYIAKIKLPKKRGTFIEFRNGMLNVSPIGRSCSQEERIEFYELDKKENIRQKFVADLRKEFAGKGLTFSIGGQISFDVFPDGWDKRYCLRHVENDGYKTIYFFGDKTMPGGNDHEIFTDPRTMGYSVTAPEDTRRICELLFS
The experiment in a line: Counter screen SAR assay for PMM2 inhibitors via a fluorescence intensity assay. [Related pubchem assays (depositor defined):AID1545, AID1574].

Series [11] deals with T6, Mannose-6-phosphate isomerase (Homo sapiens, UniProt P34949).
T6 sequence (P34949 whole entry): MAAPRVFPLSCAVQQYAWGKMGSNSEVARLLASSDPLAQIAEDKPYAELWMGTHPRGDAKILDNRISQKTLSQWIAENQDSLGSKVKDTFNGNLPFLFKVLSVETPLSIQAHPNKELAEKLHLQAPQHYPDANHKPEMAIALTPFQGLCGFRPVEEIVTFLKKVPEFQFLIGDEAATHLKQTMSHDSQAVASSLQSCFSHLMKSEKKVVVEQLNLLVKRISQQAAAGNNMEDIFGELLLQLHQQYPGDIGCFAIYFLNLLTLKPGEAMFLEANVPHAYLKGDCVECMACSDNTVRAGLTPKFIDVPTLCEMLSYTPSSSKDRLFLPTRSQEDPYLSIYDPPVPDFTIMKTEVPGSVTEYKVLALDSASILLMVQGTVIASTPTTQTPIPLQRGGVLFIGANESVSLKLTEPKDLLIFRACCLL
The experiment in a line: PMI enzyme inhibitors, confirmation, biochemical, fluorescence intensity (AID 1535).

In series [12] the target is T7, Cytochrome P450 1A2 (Homo sapiens, UniProt P05177).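 Also: PubChem cytochrome P450 panel assay, CYP1A2 panel member.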
T7 sequence (P05177 whole entry): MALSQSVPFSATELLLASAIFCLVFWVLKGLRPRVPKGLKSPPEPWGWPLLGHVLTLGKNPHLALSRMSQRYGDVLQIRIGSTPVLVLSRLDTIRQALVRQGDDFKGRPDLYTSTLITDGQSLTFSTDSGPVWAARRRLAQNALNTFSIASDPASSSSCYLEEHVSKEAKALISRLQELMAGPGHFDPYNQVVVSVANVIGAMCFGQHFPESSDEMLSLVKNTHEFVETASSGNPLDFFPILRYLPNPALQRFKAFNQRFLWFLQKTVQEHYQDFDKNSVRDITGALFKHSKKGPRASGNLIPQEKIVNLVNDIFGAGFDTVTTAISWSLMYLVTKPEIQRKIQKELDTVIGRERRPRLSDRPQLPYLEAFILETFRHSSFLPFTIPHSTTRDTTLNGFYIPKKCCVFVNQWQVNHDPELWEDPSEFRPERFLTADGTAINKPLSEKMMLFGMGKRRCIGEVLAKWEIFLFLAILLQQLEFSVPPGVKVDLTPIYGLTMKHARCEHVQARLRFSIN

Series [13] deals with Cytochrome P450 2C19 (Homo sapiens, UniProt P33261). The experiment in a line: Cytochrome panel assay with activity outcomes. Panel member name: p450-cyp2c19 Compounds with AC50 equal or less than 10 uM are considered active. The format is functional. As to conditions: read-out: AC50.
Cytochrome P450 2C19, sequence (P33261 whole entry): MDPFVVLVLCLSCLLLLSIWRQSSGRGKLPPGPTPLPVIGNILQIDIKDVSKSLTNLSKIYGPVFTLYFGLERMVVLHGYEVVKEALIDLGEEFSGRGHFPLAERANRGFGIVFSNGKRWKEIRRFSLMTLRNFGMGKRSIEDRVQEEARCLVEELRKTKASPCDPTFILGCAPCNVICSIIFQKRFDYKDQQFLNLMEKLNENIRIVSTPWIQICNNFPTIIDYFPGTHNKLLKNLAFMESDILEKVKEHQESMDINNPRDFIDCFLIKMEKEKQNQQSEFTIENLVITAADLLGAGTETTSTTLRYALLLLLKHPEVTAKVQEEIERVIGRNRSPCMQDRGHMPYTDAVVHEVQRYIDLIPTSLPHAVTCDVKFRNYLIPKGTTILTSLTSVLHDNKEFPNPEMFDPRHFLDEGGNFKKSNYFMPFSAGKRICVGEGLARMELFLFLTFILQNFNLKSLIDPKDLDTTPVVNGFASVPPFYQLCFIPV
The test system of series [14] is Vero. The experiment in a line: cells. The format is functional. As to conditions: Chlorocebus sabaeus.

Cytochrome P450 2D6, sequence (P10635 whole entry): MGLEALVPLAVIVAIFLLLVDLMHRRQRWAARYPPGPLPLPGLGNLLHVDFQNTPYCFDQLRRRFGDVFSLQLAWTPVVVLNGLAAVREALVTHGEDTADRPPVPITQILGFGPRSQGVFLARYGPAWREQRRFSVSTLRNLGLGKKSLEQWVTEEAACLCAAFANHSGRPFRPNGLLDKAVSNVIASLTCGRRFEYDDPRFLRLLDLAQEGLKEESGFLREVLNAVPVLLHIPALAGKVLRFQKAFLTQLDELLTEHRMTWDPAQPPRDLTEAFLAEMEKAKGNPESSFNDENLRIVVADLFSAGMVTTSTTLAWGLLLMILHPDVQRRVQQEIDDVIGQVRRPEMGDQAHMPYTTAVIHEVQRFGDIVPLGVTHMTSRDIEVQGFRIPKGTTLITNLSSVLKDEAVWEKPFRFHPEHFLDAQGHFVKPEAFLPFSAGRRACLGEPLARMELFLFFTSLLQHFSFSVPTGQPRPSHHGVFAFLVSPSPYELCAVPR

With `Cc1cc2cc(CNC(=O)CC(C)C)ccc2n1C`, the half-maximal activity concentration (AC50) was 15.8 µM (inconclusive) in [1] and “inconclusive” in series [2].

For the compound `CCOC(=O)c1c(C)[nH]c(C2=NN=C(Nc3ccccc3)SC2)c1C`, the figures for the EC50 in [3] and in [4] were 18.2 µM (active) and 24.3 µM (inactive), respectively.

As for `COc1ccc(OC)c(S(=O)(=O)N2CCC(C(=O)NCCc3ccccc3)CC2)c1`, the AC50 was 39.8 µM (inconclusive) in [1], 2.24 µM (inconclusive) in series [5] and “inconclusive” in series [2].

With `COc1ccc(OC)c(/C=C2\N=C(c3ccccc3)OC2=O)c1`, the EC50 in [6] is > 99 µM (inactive); in series [7], 39.1 µM (inactive); in [8], 2.58 µM (active); in series [9] it was 2.29 µM (active).

`Cc1cc2n(n1)SC(Nc1cccc3ccccc13)N2` (centres undefined): the figures for the IC50 in series [10] and in series [11] were > 100 µM (inactive) and > 50 µM (inactive), respectively.

On to `COC(=O)c1ccccc1NC(=O)C(CCS(C)(=O)=O)NC(C)=O` (centres undefined), for which the half-maximal activity concentration (AC50) was 20 µM (inconclusive) in series [12], 39.8 µM (inconclusive) in [13] and “inconclusive” in [2].

Regarding `Cn1c(SSc2ccc(-c3cccnc3)n2C)ccc1-c1cccnc1`, in [14], the half-maximal cytotoxic concentration (CC50) was 16.8 µM (active). The EC50 is 14.2 µM (active) in [3] and 14.8 µM (active) in [4].
